pIC50: −log10 of the molar value.
How the values were obtained:
[1] = molecular target: human A2a adenosine receptor (Homo sapiens (Human), UniProt P29274); assay: A2a receptor affinity radioligand binding assay ([3H] SCH58261); settings: for pIC50: membranes from HEK293 or CHO cells expressing human A2a receptor
Outline: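 Membranes from HEK293 or CHO cells expressing human A2a were preincubated 15–30 min at room temperature with compound, then incubated 60 min at room temperature with [3H]SCH58261 (diluted to 4 nM) in 50 mM Tris pH 7.4, 10 mM MgCl2, 0.005% Tween20. Bound radioactivity was collected by filtration; nonspecific binding defined with 1 μM ZM241385; IC50 from 4-parameter logistic fit.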

[2] = molecular target: human A2b adenosine receptor (Homo sapiens (Human), UniProt P29275); assay: A2b radioligand filtration binding assay; settings: for pIC50: membranes from HEK293 cells expressing human A2b receptor
Sequence of human A2b adenosine receptor (P29275 whole entry): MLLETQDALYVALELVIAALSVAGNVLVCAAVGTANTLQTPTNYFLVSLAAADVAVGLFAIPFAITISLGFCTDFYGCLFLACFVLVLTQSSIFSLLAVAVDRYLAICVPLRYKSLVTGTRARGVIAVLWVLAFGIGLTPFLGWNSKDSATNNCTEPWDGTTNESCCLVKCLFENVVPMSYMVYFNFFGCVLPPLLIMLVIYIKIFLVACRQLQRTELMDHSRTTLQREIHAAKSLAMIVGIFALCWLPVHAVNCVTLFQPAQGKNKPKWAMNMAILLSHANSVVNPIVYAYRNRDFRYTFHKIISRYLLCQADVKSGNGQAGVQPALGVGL
Outline: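 Membranes from HEK293 cells expressing human A2b receptor preincubated with compound 15 to 30 min at room temperature, then tritiated proprietary A2b antagonist (diluted to 14 nM before addition) added in PBS pH 7.4 for 60 min at room temperature. Bound radioactivity by filtration and scintillation; non-specific binding with 20 μM NECA; IC50 by 4-parameter logistic fit.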

Sequence of human A2a adenosine receptor (P29274 whole entry): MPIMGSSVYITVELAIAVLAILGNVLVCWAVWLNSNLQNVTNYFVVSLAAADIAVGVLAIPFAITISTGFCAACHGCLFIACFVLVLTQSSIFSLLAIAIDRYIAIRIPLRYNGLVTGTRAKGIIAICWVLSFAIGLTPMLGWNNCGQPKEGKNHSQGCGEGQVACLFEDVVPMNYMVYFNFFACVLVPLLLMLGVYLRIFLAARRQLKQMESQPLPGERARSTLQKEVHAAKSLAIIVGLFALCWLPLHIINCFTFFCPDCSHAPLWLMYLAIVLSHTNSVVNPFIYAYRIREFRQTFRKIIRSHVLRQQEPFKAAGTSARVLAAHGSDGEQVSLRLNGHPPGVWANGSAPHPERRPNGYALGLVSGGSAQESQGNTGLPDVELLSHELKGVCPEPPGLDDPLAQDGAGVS

| SMILES | pIC50 [1] | pIC50 [2] | A2A binding % Inh. @ 1000 nM ([1]; @ 1000 nM) [% Inh.] | A2B binding % Inh. @ 10000 nM ([2]; @ 10000 nM) [% Inh.] |
| --- | --- | --- | --- | --- |
| COc1cc2nc(N)n3nc([C@@H]4CCCN(c5cnn([C@@H]6CC[C@@]6(C)O)c5)C4)nc3c2cc1F (single isomer, unassigned) [Example 99, (1R or 1S,2R or 2S)-2-(4-((R)-3-(5-amino-9-fluoro-8-methoxy-[1,2,4]triazolo[1,5-c]quinazolin-2-yl)piperidin-1-yl)-1H-pyrazol-1-yl)-1-methylcyclobutan-1-ol] | 8.36 | 6.64 | – | – |
| Cn1cc(N2CCCC(c3nc4c5cc(F)c(F)cc5nc(N)n4n3)C2)cn1 (single isomer, unassigned) [Example 101, (R or S)-8,9-difluoro-2-(1-(1-methyl-1H-pyrazol-4-yl)piperidin-3-yl)-[1,2,4]triazolo[1,5-c]quinazolin-5-amine] | 7.49 | 6.41 | – | – |
| Cn1cc(N2CCCC(c3nc4c5cc(F)ccc5nc(N)n4n3)C2)cn1 (single isomer, unassigned) [Example 102, (R or S)-9-fluoro-2-(1-(1-methyl-1H-pyrazol-4-yl)piperidin-3-yl)-[1,2,4]triazolo[1,5-c]quinazolin-5-amine] | 6.99 | 6.27 | – | – |
| Cn1cc(N2CCCC(c3nc4c5cc(F)cc(F)c5nc(N)n4n3)C2)cn1 (single isomer, unassigned) [Example 103, (R or S)-7,9-difluoro-2-(1-(1-methyl-1H-pyrazol-4-yl)piperidin-3-yl)-[1,2,4]triazolo[1,5-c]quinazolin-5-amine] | 9.30 | 6.86 | – | – |
| COc1cc(Cl)cc2c1nc(N)n1nc(C3CCCN(c4cnn(C)c4)C3)nc21 (single isomer, unassigned) [Example 104, (R or S)-9-chloro-7-methoxy-2-(1-(1-methyl-1H-pyrazol-4-yl)piperidin-3-yl)-[1,2,4]triazolo[1,5-c]quinazolin-5-amine] | 7.75 | 6.12 | – | – |
| Cc1cc(Cl)cc2c1nc(N)n1nc(C3CCCN(c4cnn(C)c4)C3)nc21 (single isomer, unassigned) [Example 105, (R or S)-9-chloro-7-methyl-2-(1-(1-methyl-1H-pyrazol-4-yl)piperidin-3-yl)-[1,2,4]triazolo[1,5-c]quinazolin-5-amine] | 6.48 | 6.13 | – | – |
| Cn1cc(N2CCCC(c3nc4c5cc(Cl)ccc5nc(N)n4n3)C2)cn1 (single isomer, unassigned) [Example 106, (R or S)-9-chloro-2-(1-(1-methyl-1H-pyrazol-4-yl)piperidin-3-yl)-[1,2,4]triazolo[1,5-c]quinazolin-5-amine] | 6.50 | 6.37 | – | – |
| Cn1cc(N2CCCC(c3nc4c5c(F)c(F)ccc5nc(N)n4n3)C2)cn1 (single isomer, unassigned) [Example 107, (R or S)-9,10-difluoro-2-(1-(1-methyl-1H-pyrazol-4-yl)piperidin-3-yl)-[1,2,4]triazolo[1,5-c]quinazolin-5-amine] | 6.90 | 5.82 | – | – |
| COc1ccc2nc(N)n3nc(C4CCCN(c5cnn(C)c5)C4)nc3c2c1 (single isomer, unassigned) [Example 108, (R or S)-9-methoxy-2-(1-(1-methyl-1H-pyrazol-4-yl)piperidin-3-yl)-[1,2,4]triazolo[1,5-c]quinazolin-5-amine] | – | 5.07 | 36 | – |
| COc1cc(F)cc2c1nc(N)n1nc([C@@H]3CC[C@@H](C)N(c4cn(CC(C)(C)O)nc4C)C3)nc21 (single isomer, unassigned) [Example 114, 1-(4-((2R or 2S,5R or 5S)-5-(5-amino-9-fluoro-7-methoxy-[1,2,4]triazolo[1,5-c]quinazolin-2-yl)-2-methylpiperidin-1-yl)-3-methyl-1H-pyrazol-1-yl)-2-methylpropan-2-ol] | 7.30 | 5.54 | – | – |
| COc1cc(F)cc2c1nc(N)n1nc([C@@H]3CC[C@H](C)N(c4cn(CC(C)(C)O)nc4C)C3)nc21 (single isomer, unassigned) [Example 115, 1-(4-((2S or 2R,5R or 5S)-5-(5-amino-9-fluoro-7-methoxy-[1,2,4]triazolo[1,5-c]quinazolin-2-yl)-2-methylpiperidin-1-yl)-3-methyl-1H-pyrazol-1-yl)-2-methylpropan-2-ol] | 8.54 | 6.05 | – | – |
| COc1cc(F)cc2c1nc(N)n1nc([C@H]3CC[C@H](C)N(c4cn(CC(C)(C)O)nc4C)C3)nc21 (single isomer, unassigned) [Example 116, 1-(4-((2S or 2R,5S or 5R)-5-(5-amino-9-fluoro-7-methoxy-[1,2,4]triazolo[1,5-c]quinazolin-2-yl)-2-methylpiperidin-1-yl)-3-methyl-1H-pyrazol-1-yl)-2-methylpropan-2-ol] | 6.68 | – | – | 35 |
| COc1cc(F)cc2c1nc(N)n1nc([C@H]3CC[C@@H](C)N(c4cn(CC(C)(C)O)nc4C)C3)nc21 (single isomer, unassigned) [Example 117, 1-(4-((2R or 2S,5S or 5R)-5-(5-amino-9-fluoro-7-methoxy-[1,2,4]triazolo[1,5-c]quinazolin-2-yl)-2-methylpiperidin-1-yl)-3-methyl-1H-pyrazol-1-yl)-2-methylpropan-2-ol] | 9.70 | 7.89 | – | – |
| COc1cc(F)cc2c1nc(N)n1nc(C3CCC(C)N(c4cnn(CC(C)(C)O)c4)C3)nc21 (single isomer, unassigned) [Example 118, 1-(4-((2R or 2S,5R or 5S)-5-(5-amino-9-fluoro-7-methoxy-[1,2,4]triazolo[1,5-c]quinazolin-2-yl)-2-methylpiperidin-1-yl)-1H-pyrazol-1-yl)-2-methylpropan-2-ol] | 8.72 | 6.41 | – | – |
| COc1cc(F)cc2c1nc(N)n1nc(C3CCC(C)N(c4cnn(CC(C)(C)O)c4)C3)nc21 (single isomer, unassigned) [Example 119, 1-(4-((2S or 2R,5S or 5R)-5-(5-amino-9-fluoro-7-methoxy-[1,2,4]triazolo[1,5-c]quinazolin-2-yl)-2-methylpiperidin-1-yl)-1H-pyrazol-1-yl)-2-methylpropan-2-ol] | 7.29 | 5.89 | – | – |
| COc1cc(F)cc2c1nc(N)n1nc(C3CCC(C)N(c4cnn(CC(C)(C)O)c4)C3)nc21 (single isomer, unassigned) [Example 120, 1-(4-((2R or 2S,5S or 5R)-5-(5-amino-9-fluoro-7-methoxy-[1,2,4]triazolo[1,5-c]quinazolin-2-yl)-2-methylpiperidin-1-yl)-1H-pyrazol-1-yl)-2-methylpropan-2-ol] | 9.22 | 8.11 | – | – |
| COc1cc(F)cc2c1nc(N)n1nc(C3CCC(C)N(c4cnn(CC(C)(C)O)c4)C3)nc21 (single isomer, unassigned) [Example 121, 1-(4-((2S or 2R,5R or 5S)-5-(5-amino-9-fluoro-7-methoxy-[1,2,4]triazolo[1,5-c]quinazolin-2-yl)-2-methylpiperidin-1-yl)-1H-pyrazol-1-yl)-2-methylpropan-2-ol] | 7.26 | 5.27 | – | – |
| COc1cc(F)cc2c1nc(N)n1nc(C3CCC(C)N(c4cnn(C(C)(C)CO)c4)C3)nc21 (single isomer, unassigned) [Example 122, 2-(4-((2R or 2S,5R or 5S)-5-(5-amino-9-fluoro-7-methoxy-[1,2,4]triazolo[1,5-c]quinazolin-2-yl)-2-methylpiperidin-1-yl)-1H-pyrazol-1-yl)-2-methylpropan-1-ol] | 6.43 | 5.69 | – | – |
| COc1cc(F)cc2c1nc(N)n1nc(C3CCC(C)N(c4cnn(C(C)(C)CO)c4)C3)nc21 (single isomer, unassigned) [Example 123, 2-(4-((2S or 2R,5S or 5R)-5-(5-amino-9-fluoro-7-methoxy-[1,2,4]triazolo[1,5-c]quinazolin-2-yl)-2-methylpiperidin-1-yl)-1H-pyrazol-1-yl)-2-methylpropan-1-ol] | 9.52 | 6.37 | – | – |
| COc1cc(F)cc2c1nc(N)n1nc(C3CCC(C)N(c4cnn(C(C)(C)CO)c4)C3)nc21 (single isomer, unassigned) [Example 124, 2-(4-((2R or 2S,5S or 5R)-5-(5-amino-9-fluoro-7-methoxy-[1,2,4]triazolo[1,5-c]quinazolin-2-yl)-2-methylpiperidin-1-yl)-1H-pyrazol-1-yl)-2-methylpropan-1-ol] | 9.52 | 8.77 | – | – |
| COc1cc(F)cc2c1nc(N)n1nc(C3CCC(C)N(c4cnn(C(C)(C)CO)c4)C3)nc21 (single isomer, unassigned) [Example 125, 2-(4-((2S or 2R,5R or 5S)-5-(5-amino-9-fluoro-7-methoxy-[1,2,4]triazolo[1,5-c]quinazolin-2-yl)-2-methylpiperidin-1-yl)-1H-pyrazol-1-yl)-2-methylpropan-1-ol] | 7.06 | 5.60 | – | – |
| COc1cc2nc(N)n3nc(C4CCC(C)N(c5cnn(C(C)(C)CO)c5)C4)nc3c2cc1F (single isomer, unassigned) [Example 126, rac-2-(4-((2R or 2S,5R or 5S)-5-(5-amino-9-fluoro-8-methoxy-[1,2,4]triazolo[1,5-c]quinazolin-2-yl)-2-methylpiperidin-1-yl)-1H-pyrazol-1-yl)-2-methylpropan-1-ol] | 8.59 | 5.67 | – | – |
| COc1cc2nc(N)n3nc(C4CCC(C)N(c5cnn(C(C)(C)CO)c5)C4)nc3c2cc1F (single isomer, unassigned) [Example 127, 2-(4-((2R or 2S,5R or 5S)-5-(5-amino-9-fluoro-8-methoxy-[1,2,4]triazolo[1,5-c]quinazolin-2-yl)-2-methylpiperidin-1-yl)-1H-pyrazol-1-yl)-2-methylpropan-1-ol] | 6.92 | 5.94 | – | – |
